The text below walks through data of patent publication US6974791B2, “Endothelial specific targeting” (The University of Pittsburgh, priority 2000, dated 2005).

Test [1] deals with vessels in human xenograft PC-3 (prostate carcinoma) tumors. Description: in vivo binding of intravenously injected peptide in PC-3 tumor-bearing mice (fluorescence microscopy of frozen sections). Set-up: species or system mouse. The settings on record: for binding to vessels in the tumors (tumor cross-sections): five i.v. (tail vein) injections of 1 ng/mouse at one hour intervals. The protocol: (§1) Additionally, in vivo experiments with the prototype peptide, SEQ ID NO 3, which stained the brightest in the in vitro experiments described above, were conducted using several different assays as described below. In one in vivo assay, tumor-bearing mice were injected five times intravenously (tail vein) with 1 ng/mouse at one hour intervals. The mice were sacrificed 15 minutes after the final injection, the tumors and other normal tissues (lung, heart, muscle) were taken for fresh frozen sectioning (i.e., embedded in OCT medium and frozen) and for evaluation via fluorescence microscopy. […] Although these peptides were generated from TDEC originating from the murine SCC tumor, SEQ ID NO 3 also bound to the endothelium from a human xenograft model.
The specificity of SEQ ID NO 3 for endothelial vessels is illustrated in FIG. 7. In this experiment, PC-3 tumor-bearing mice were injected (as described above) with positive control poly-L-lysine, negative control SEQ ID NO 8 Pen G7 and peptide SEQ ID NO 3. FIG. 7A, 7B and 7C are micrographs illustrating cross-sections of PC-3 tumor from tumor-bearing mice that were injected with peptides. In each figure, the gray diamond indicates the location of the lumen of the blood vessel.

Test [2] deals with tumor-derived endothelial cells (TDEC). Description: in vitro binding of FITC-conjugated peptides to TDEC monolayers (fluorescent microscopy), NIH3T3 as negative control monolayer. The settings on record: peptide 5 μg/ml overnight at 37° C. in PBS with 10% FCS; TDEC vs NIH3T3 monolayers. In kind it is cell-based, mouse. How it is done: Tumors were established by subcutaneous injection of 5×10^6 SCC VII cells per C3H/HeJ mouse. After a tumor had achieved a diameter of 0.5 cm to 1.0 cm and before any evidence of central necrosis, it was removed sterilely, minced, and digested with collagenases and RNAses to yield a single cell suspension. The cells were then stained using antibody for PECAM-1. The stained cells were sorted using automated flow cytometry and the positive cells were cultured as TDECs in Po Media [DMEM supplemented with 20% Sarcoma-180 conditioned media, 10% Fetal Calf Serum, 1% BME vitamin, 1% heparin, and 0.005% endothelial cell growth supplement (Collaborative Research)].
Evidence for specific binding of oligopeptides to TDEC was accomplished as follows. The most frequently repetitive sequences obtained from the 100 clones were used for synthesis of oligopeptides (Sigma Genesis). By conjugating fluorescein isothiocynate ([…]) to the carboxyl termini of peptides, these molecules were tested for in vitro binding with TDECs and NIH3T3 cells (negative control cell line). These peptides contained flanking cysteines so that a disulfide loop may be reformed, thus constraining and mimicking the binding condition of the initial selection process. […]

The test system of test [3] is human soft tissue sarcoma and prostate carcinoma tumor sections (endothelium). Description: triple staining of fresh frozen human tumor sections with FITC-tagged peptide, anti-Factor VIII antibody and nuclear stain. The format is binding. The settings on record: fresh frozen sections snap fixed in paraformaldehyde. How it is done:
The ability of novel peptide motifs of the present invention to cross-react with tissues from different sources was tested using human samples from a pathologist-diagnosed soft tissue sarcoma and a prostate carcinoma. Fresh frozen tumor sections were snap fixed in paraformaldehyde, and then triple stained for fluorescence microscopic analysis, the results of which are shown in FIG. 8. The staining included: a stain for cell nuclei, and anti-Factor VIII antibody (secondary antibody labeled with Cy3 red fluorescent probe), and peptide SEQ ID NO 3 (tagged with FITC, green upon fluorescence). […] Factor VIII staining is specific for endothelial cells which produce and store the Factor VIII blood factor.

The test system of test [4] is vessels in murine SCC (squamous cell) tumors. Kind of test: in vivo binding of intravenously injected peptide in tumor-bearing mice, murine SCC tumor model (fluorescence microscopy of frozen sections). Set-up: species or system mouse. How it is done: as §1

“Also recorded” adds a separate entry of the source. Where no end group is shown, it is not given here.

As to “CGGGGGGGC (cysteine pairing not given here) [SEQ ID NO 8 Pep G7, negative control peptide, seven glycine residues flanked by cysteines, reference compound]”, the “binding to vessels in the tumors (tumor cross-sections)” value (shortened to “binding … (tumor cross-sections)”) in test [1] is “no binding activity”.
“CGGRKLGGC (cysteine pairing not given here) [SEQ ID NO 2]”: the “staining / binding specificity of FITC-labeled peptide for TDEC” value in test [2] is “preferential staining for TDEC; also recorded: some binding specificity to TDEC”.
Regarding “CGGRRLGGC (cysteine pairing not given here) [SEQ ID NO 3]”, the “staining of human tumor sections relative to Factor VIII-positive (vascularized) regions” value in test [3] is recorded as “observed primarily in the regions of the tissue that were vascularized”. Further, the “staining / binding specificity of FITC-labeled peptide for TDEC” value in test [2] was “brightest staining and specificity for TDEC; also recorded: highest in vitro binding specificity to TDEC”. Further, in test [1] (after i.v. injection, FIG. 7C), the “distribution of staining in PC-3 tumor cross-section” value is recorded as “limited to the blood vessel wall”. For the same substance, in test [1], the “binding … (tumor cross-sections)” value was “preferential binding; also recorded: intense binding to the cells of the vessel”. Also, the “binding to vessels of normal tissues” value in test [1] (lung, heart, muscle, five i.v. injections of 1 ng/mouse) is given as “no binding to the vessels of normal tissues”; in test [4] (murine SCC tumor-bearing mice, lung, heart, muscle, five i.v. injections of 1 ng/mouse), “no binding to the vessels of normal tissues”. Also, the “binding to vessels in the tumors” value in test [4] (murine SCC tumor, five i.v. (tail vein) injections of 1 ng/mouse at one hour intervals, sacrifice 15 minutes after final injection) is “preferential binding”.
Take poly-L-lysine [reference compound]: the “binding … (tumor cross-sections)” value in test [1] is on record as “not only bound to the cells of the blood vessel, but also diffused through the intercellular space”.
